Measurements reported in ChEMBL document CHEMBL3045312, “Projuvenoids: synthesis and biological evaluation of sulfenylated, sulfinylated, and sulfonylated carbamates” (Arch Insect Biochem Physiol, 1996).
The source made the active and inactive calls. The rule behind the calls is not given here.

Experiments:
Bemisia tabaci [1] = test: Juvenile hormone mimicking activity against Bemisia tabaci (sweet potato whitefly) infested cotton assessed as suppression of adult emergence at 400 g/ha applied as wettable powder through spray measured on day 12 under field conditions (reference value: 89%); type: functional
Bemisia tabaci [2] = test: Juvenile hormone mimicking activity against Bemisia tabaci (sweet potato whitefly) infested cotton assessed as suppression of adult emergence at 200 g/ha applied as wettable powder through spray measured on day 12 under field conditions (reference value: 89%); type: functional
Bemisia tabaci [3] = test: Juvenile hormone mimicking activity against Bemisia tabaci (sweet potato whitefly) infested cotton assessed as suppression of adult emergence at 100 g/ha applied as wettable powder through spray measured on day 12 under field conditions (reference value: 89%); type: functional
Bemisia tabaci [4] = test: Juvenile hormone mimicking activity against Bemisia tabaci (sweet potato whitefly) infested cotton assessed as suppression of nymph emergence at 400 g/ha applied as wettable powder through spray measured on day 12 under field conditions (reference value: 92%); type: functional
[5] = Lipophilicity, log P of the compound; type: physicochemical; details: octanol/water
Bemisia tabaci [6] = test: Juvenile hormone mimicking activity against Bemisia tabaci (sweet potato whitefly) infested cotton assessed as suppression of nymph emergence at 200 g/ha applied as wettable powder through spray measured on day 12 under field conditions (reference value: 92%); type: functional
Bemisia tabaci [7] = test: Juvenile hormone mimicking activity against Bemisia tabaci (sweet potato whitefly) infested cotton assessed as suppression of nymph emergence at 100 g/ha applied as wettable powder through spray measured on day 12 under field conditions (reference value: 92%); type: functional
Sitophilus oryzae [8] = test: Juvenile hormone mimicking activity against adult Sitophilus oryzae (rice weevil) infested wheat kernels assessed as suppression of progeny development at 1 ppm applied through diet for 21 days measured after 9 weeks; type: functional, organism-based
Pieris brassicae [9] = test: Juvenile hormone mimicking activity against fifth-instar larval stage of Pieris brassicae reared on cabbage plants assessed as morphogenetic changes measured per larvae applied topically to dorsal surface of larvae measured post pupal ecdysis; type: functional
Pieris brassicae [10] = test: Ratio of fenoxycarb ID50 to compound ID50 for fifth-instar larval stage of Pieris brassicae; type: functional
Bemisia tabaci [11] = test: Juvenile hormone mimicking activity against Bemisia tabaci (sweet potato whitefly) infested cotton assessed as suppression of adult emergence at 200 g/ha applied as emulsifiable concentrate through spray measured on day 12 under field conditions (reference value: 89%); type: functional
Bemisia tabaci [12] = test: Juvenile hormone mimicking activity against Bemisia tabaci (sweet potato whitefly) infested cotton assessed as suppression of adult emergence at 100 g/ha applied as emulsifiable concentrate through spray measured on day 12 under field conditions (reference value: 89%); type: functional
Bemisia tabaci [13] = test: Juvenile hormone mimicking activity against Bemisia tabaci (sweet potato whitefly) infested cotton assessed as suppression of adult emergence at 50 g/ha applied as emulsifiable concentrate through spray measured on day 12 under field conditions (reference value: 89%); type: functional
Bemisia tabaci [14] = test: Juvenile hormone mimicking activity against Bemisia tabaci (sweet potato whitefly) infested cotton assessed as suppression of nymph emergence at 200 g/ha applied as emulsifiable concentrate through spray measured on day 12 under field conditions (reference value: 92%); type: functional
Bemisia tabaci [15] = test: Juvenile hormone mimicking activity against Bemisia tabaci (sweet potato whitefly) infested cotton assessed as suppression of nymph emergence at 100 g/ha applied as emulsifiable concentrate through spray measured on day 12 under field conditions (reference value: 92%); type: functional
Bemisia tabaci [16] = test: Juvenile hormone mimicking activity against Bemisia tabaci (sweet potato whitefly) infested cotton assessed as suppression of nymph emergence at 50 g/ha applied as emulsifiable concentrate through spray measured on day 12 under field conditions (reference value: 92%); type: functional
Sitophilus oryzae [17] = test: Juvenile hormone mimicking activity against adult Sitophilus oryzae (rice weevil) infested wheat kernels assessed as suppression of progeny development at 1 to 100 ppm applied through diet for 21 days measured after 9 weeks; type: functional, organism-based

CCOC(=O)NCCOc1ccc(Oc2ccccc2)cc1 [PHENOXYCARB] showed an Activity (Bemisia tabaci [1]) of 20%, an Activity (Bemisia tabaci [2]) of 29% and an Activity (Bemisia tabaci [3]) of 43%. For the same compound, the Activity (Bemisia tabaci [4]) was 21%, the logP [5] was 4.07 and the Activity (Bemisia tabaci [6]) was 34%. The Activity (Bemisia tabaci [7]) was 41%, the Activity (Sitophilus oryzae [8]) was “Active” and the ID50 (Pieris brassicae [9]) was 21 ng.
With CCCCCCCCCCCCOC(=O)N(CCCC)SN(CCOc1ccc(Oc2ccccc2)cc1)C(=O)OCC the Activity (Sitophilus oryzae [8]) was “Active”, the Ratio (Pieris brassicae [10]) was 6 and the ID50 (Pieris brassicae [9]) was 2.8 ng.
With CCOC(=O)N(CCOc1ccc(Oc2ccccc2)cc1)S(=O)(=O)N(CCOc1ccc(Oc2ccccc2)cc1)C(=O)OCC the ID50 (Pieris brassicae [9]) was >100 ng.
CCOC(=O)N(CCOc1ccc(Oc2ccccc2)cc1)[S+]([O-])N(CCOc1ccc(Oc2ccccc2)cc1)C(=O)OCC showed an Activity (Bemisia tabaci [11]) of 19%, an Activity (Bemisia tabaci [12]) of 31% and an Activity (Bemisia tabaci [13]) of 36%. For the same compound, the Activity (Bemisia tabaci [14]) was 16%, the Activity (Bemisia tabaci [15]) was 33% and the Activity (Bemisia tabaci [16]) was 47%. For the same compound, the Activity (Sitophilus oryzae [8]) was “Active” and the ID50 (Pieris brassicae [9]) was 2.2 ng.
For CCOC(=O)N(CCOc1ccc(Oc2ccccc2)cc1)SN(CCOc1ccc(Oc2ccccc2)cc1)C(=O)OCC, the Activity (Sitophilus oryzae [8]) was “Active” and the ID50 (Pieris brassicae [9]) was 2.8 ng.
CCOC(=O)N(CCOc1ccc(Oc2ccc(Cl)cc2)cc1)[S+]([O-])N(CCOc1ccc(Oc2ccc(Cl)cc2)cc1)C(=O)OCC showed an ID50 (Pieris brassicae [9]) of 9 ng.
With COC(C)(C)CCC[C@H](C)C/C=C/C(C)=C/C(=O)OC(C)C [METHOPRENE] the logP [5] was 5.21, the Activity (Sitophilus oryzae [17]) was “Active” and the ID50 (Pieris brassicae [9]) was 60 ng.
CC(C)OC(=O)N(CCOc1ccc(Oc2ccccc2)cc1)SN(CCOc1ccc(Oc2ccccc2)cc1)C(=O)OC(C)C gave an ID50 (Pieris brassicae [9]) of 22 ng.
For CCOC(=O)CC(SP(=S)(OC)OC)C(=O)OCC (configuration not stated), the Activity (Sitophilus oryzae [17]) was “Active”.
For CCCCCCCCCCCCCCCCCN(SN(CCOc1ccc(Oc2ccccc2)cc1)C(=O)OCC)C(=O)OCc1ccccc1, the Activity (Sitophilus oryzae [8]) was “Active” and the ID50 (Pieris brassicae [9]) was 6.4 ng.
For CCOC(=O)NCCOc1ccc(Oc2ccc(Cl)cc2)cc1, the ID50 (Pieris brassicae [9]) was 22 ng.
CC(C)OC(=O)NCCOc1ccc(Oc2ccccc2)cc1 gave an ID50 (Pieris brassicae [9]) of 24 ng.
CCOC(=O)N(CCOc1ccc(Oc2ccc(Cl)cc2)cc1)SN(CCOc1ccc(Oc2ccc(Cl)cc2)cc1)C(=O)OCC showed an ID50 (Pieris brassicae [9]) of 26 ng.
CC(C)OC(=O)N(CCOc1ccc(Oc2ccccc2)cc1)[S+]([O-])N(CCOc1ccc(Oc2ccccc2)cc1)C(=O)OC(C)C gave an ID50 (Pieris brassicae [9]) of 20 ng.
Compound CCCCCCCCOC(=O)N(C)SN(CCOc1ccc(Oc2ccccc2)cc1)C(=O)OCC has a Ratio (Pieris brassicae [10]) of 6 and an ID50 (Pieris brassicae [9]) of 3.4 ng.
